Legend:
Assay type in all cases: functional
Felis catus [1] = species: Felis catus; experiment: Tested for inhibitory activity against postganglionic cardioaccelerator nerve relative to apomorphine
Felis catus [2] = experiment: Percent reduction in heart rate after iv administration of 1 umol/kg of compound in anesthetized cats.
Felis catus [3] = species: Felis catus; experiment: Tested for inhibition of postganglionic cardioaccelerator nerve in the cat; settings: for ED50: Felis catus, read-out: ID50 (the source's name)
Felis catus [4] = experiment: Percent reduction in blood pressure after iv administration of 1 umol/kg of compound in anesthetized cat

SMILES | Relative activity (Felis catus [1]) | Reduction (Felis catus [2]) [beats min-1] | ED50 (Felis catus [3]) [µmol/kg] | Reduction (Felis catus [4]) [%] | ID50 (Felis catus [3]) [µM/kg]
Br.CCN1CC[C@H]2CCc3cc(O)c(O)cc3[C@H]2C1 | 0.025 | 4.3 | 0.81 | 18.5 | –
Br.CCCN1CC[C@H]2CCc3cc(O)c(O)cc3[C@@H]2C1 (relative stereo) | 0.026 | 3 | 0.8 | 13.3 | –
Br.CCCN1CC[C@H]2CCc3cc(O)c(O)cc3[C@H]2C1 (relative stereo) | 0.02 | 22.6 | 0.9 | 31.7 | –
Br.Oc1cc2c(cc1O)C1CNCCC1CC2 (stereo in doubt; 21) | 0.073 | 13.6 | – | 27.9 | 0.31
Br.CN1CCC2CCc3cc(O)c(O)cc3C2C1 (trans isomer) | 0.038 | 3.2 | 0.52 | 14.6 | –
Br.Oc1cc2c(cc1O)C1CNCCC1CC2 (trans isomer) | 0.27 | 49 | – | 21.9 | 0.8
CN1CCc2cccc3c2[C@H]1Cc1ccc(O)c(O)c1-3 [APOMORPHINE] | 1 | – | 0.024 | – | –
